Where a chain is given by its changes, count along the chain named.
What was measured:
GUN4 (AtGUN4) [1] = target: T1, GUN4 (AtGUN4) (Arabidopsis thaliana, UniProt Q9LX31); test: tryptophan fluorescence quenching; format: binding; conditions: read-out: apparent Kd
T1 construct: 6xHis-tagged, pQE80_AtGUN4(WT), expressed in and purified from E. coli
T1 sequence (Q9LX31 70-265): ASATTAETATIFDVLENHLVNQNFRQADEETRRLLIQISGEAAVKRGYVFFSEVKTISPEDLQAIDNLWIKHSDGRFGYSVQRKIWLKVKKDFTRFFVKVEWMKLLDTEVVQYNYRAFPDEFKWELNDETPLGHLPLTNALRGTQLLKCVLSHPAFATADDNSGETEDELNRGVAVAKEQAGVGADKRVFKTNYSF

GUN4 (AtGUN4) [2] = target: T2, GUN4 (AtGUN4) (Arabidopsis thaliana, UniProt Q9LX31, F191A); test: tryptophan fluorescence quenching; format: binding; conditions: read-out: apparent Kd
T2 construct: 6xHis-tagged, pQE80_AtGUN4(WT), expressed in and purified from E. coli
T2 sequence (Q9LX31 70-265 F191A): T1 sequence (Q9LX31 70-265) with F122A

SMILES: C=CC1=C(C)c2cc3[nH]c(cc4nc(cc5[nH]c(cc1n2)c(C)c5CCC(=O)O)C(CCC(=O)O)=C4C)c(C)c3C=C [PIX]
- Kd (GUN4 (AtGUN4) [1]): 1.05 ± 0.12 µM
- Kd (GUN4 (AtGUN4) [2]): 2.1 ± 0.28 µM

From article PMC8967248, “Impact of Porphyrin Binding to GENOMES UNCOUPLED 4 on Tetrapyrrole Biosynthesis in planta” (Frontiers in Plant Science, 2022)
